The values that follow come from patent US20110294799A1, “Organic Compounds” (NOVARTIS AG, priority 2007, published 2011).

Assay [1] concerns the target T1, GABA-A alpha2 receptor (alpha 2 subunit together with a beta and a gamma subunit) (Homo sapiens, UniProt P18507+P47869).
T1 construct: expressed in transfected cells
T1 sequence (P47869 29-451): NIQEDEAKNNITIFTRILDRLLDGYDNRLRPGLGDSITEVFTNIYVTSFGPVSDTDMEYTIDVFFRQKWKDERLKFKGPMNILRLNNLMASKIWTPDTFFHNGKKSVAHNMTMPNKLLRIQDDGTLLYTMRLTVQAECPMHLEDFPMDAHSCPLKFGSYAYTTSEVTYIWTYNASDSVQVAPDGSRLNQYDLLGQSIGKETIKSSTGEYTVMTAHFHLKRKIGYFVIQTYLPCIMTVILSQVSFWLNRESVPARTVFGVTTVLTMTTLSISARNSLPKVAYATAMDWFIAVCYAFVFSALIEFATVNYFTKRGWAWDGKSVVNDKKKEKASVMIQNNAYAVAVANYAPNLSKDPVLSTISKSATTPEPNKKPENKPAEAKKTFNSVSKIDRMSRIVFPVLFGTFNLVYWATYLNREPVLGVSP
T1 sequence (P47870 25-512 partner limits assumed): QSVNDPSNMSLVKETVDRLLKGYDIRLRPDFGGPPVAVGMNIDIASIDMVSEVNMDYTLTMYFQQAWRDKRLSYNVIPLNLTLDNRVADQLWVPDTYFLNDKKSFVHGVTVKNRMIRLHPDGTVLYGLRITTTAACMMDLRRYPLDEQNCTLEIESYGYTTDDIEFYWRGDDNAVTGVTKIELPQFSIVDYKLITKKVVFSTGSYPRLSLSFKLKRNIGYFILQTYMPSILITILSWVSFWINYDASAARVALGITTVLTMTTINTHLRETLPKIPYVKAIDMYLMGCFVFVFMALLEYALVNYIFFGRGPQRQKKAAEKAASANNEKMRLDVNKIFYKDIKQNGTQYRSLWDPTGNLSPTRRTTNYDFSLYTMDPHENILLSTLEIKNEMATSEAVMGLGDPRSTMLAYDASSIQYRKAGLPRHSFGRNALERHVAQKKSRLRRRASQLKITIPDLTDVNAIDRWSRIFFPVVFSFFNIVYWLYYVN
T1 sequence (P18507 40-467 limits assumed): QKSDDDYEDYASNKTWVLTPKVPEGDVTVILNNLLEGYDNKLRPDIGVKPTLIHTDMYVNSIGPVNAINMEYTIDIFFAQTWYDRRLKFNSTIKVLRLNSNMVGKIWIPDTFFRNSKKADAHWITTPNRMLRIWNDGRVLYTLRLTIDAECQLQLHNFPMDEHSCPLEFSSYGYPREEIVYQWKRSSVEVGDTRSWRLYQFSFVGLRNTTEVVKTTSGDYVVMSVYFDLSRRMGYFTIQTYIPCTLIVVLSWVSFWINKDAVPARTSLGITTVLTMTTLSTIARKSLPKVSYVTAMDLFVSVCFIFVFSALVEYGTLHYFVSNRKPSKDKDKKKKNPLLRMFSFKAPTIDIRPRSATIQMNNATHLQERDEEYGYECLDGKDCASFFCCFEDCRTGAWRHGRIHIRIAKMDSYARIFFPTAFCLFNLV
Nature of the assay: GABA-A receptor modulation, voltage-sensitive dye fluorescence in transfected eukaryotic cell line (alpha2). It counts as cell-based. Conditions: compounds at 3 μM, sub-maximal concentration of GABA (EC20); for activation at 3 µM: read-out: alpha2 % mod (percentage of increase of the fluorescent signal compared to signal without the agent). An excerpt: (§1) GABA-A receptor modulators show in functional assays a positive modulation of GABA-induced signals. This modulation can be determined in vitro, e.g., at recombinant GABA-A receptors expressed in a mammalian cell line, e.g. by measurement of GABA-A receptor induced changes of the trans-membrane voltage, when using a voltage-sensitive dye and a fluorescence detection system (Adkins, C. E., Pillai, G. V., Kerby, J., Bonnert, T. P., Haldon, C., Mckernan, R. M., Gonzalez, J. E., Oades, K., Whiting, P. J. & Simpson, P. B. [2001]. alpha4beta3delta GABA-A receptors characterized by fluorescence resonance energy transfer-derived measurements of membrane potential. J. Biol. Chem., 276, 38934-38939). In this assay, a modulator compound is pre-applied at different concentrations ranging from 0.1 nM to 10 μM to cells expressing GABA-A receptors and loaded with the voltage-sensitive dye, before, or at the same time as, a sub-maximal concentration of GABA (in the range of from 0.1 to 10 μM) is applied to the cells. The fluorescent signal is correlated with the degree of GABA-A receptor channel opening. This allows the quantification of effects induced by the modulator in a functional manner. By expression of different GABA-A receptor subunit combinations, the differential efficacy of a modulator at different GABA-A receptor variants can be tested. Other functional assays include the electrophysiological recording of Xenopus oocytes or mammalian cells expressing respective receptor variants. In addition, ion flux detectors can be used to functionally study GABA-A receptors in heterologous expression systems. The affinity of a compound to the GABA-A receptor can be measured in radioligand binding experiments using reference ligands containing a radioactive element, e.g., tritiated flumazenil, and intact cells or membrane preparations of cells expressing GABA-A receptors.
(§2) Activity and selectivity of a GABA-A receptor modulator according to the invention can, e.g., be determined in vitro as follows: A transfected eukaryotic cell line expressing the alpha1, alpha2 or alpha3 subunit of the GABA-A receptor together with a beta and a gamma subunit of the GABA-A receptor is incubated with a voltage-sensitive dye, and the effects of an agonist (typically GABA) or modulator addition are recorded in a fluorimetric plate reader. The opening of the GABA-A receptor channel and the subsequent flux of anions through it changes the trans-membrane voltage of the transfected cells, leading to a change in the fluorescent signal of the voltage-sensitive dye. In the presence of the agent of the invention, a sub-maximal concentration of GABA (e.g. an EC20 or an EC50) added to transfected cells expressing the alpha1, alpha2 or alpha3 subunit of the GABA-A receptor will elicit an at least 50%, preferably an at least 80%, ideally an at least 100%, increase, of the fluorescent signal, compared to the fluorescent signal obtained without the agent of the invention. In this assay, agents of the invention modulate the GABA-induced response at concentration from about 0.1 to about 10′000 nM.

The target in assay [2] is T2, GABA-A alpha1 receptor (alpha 1 subunit together with a beta and a gamma subunit) (Homo sapiens, UniProt P14867+P18507).
T2 construct: expressed in transfected cells
T2 sequence (P14867 28-456): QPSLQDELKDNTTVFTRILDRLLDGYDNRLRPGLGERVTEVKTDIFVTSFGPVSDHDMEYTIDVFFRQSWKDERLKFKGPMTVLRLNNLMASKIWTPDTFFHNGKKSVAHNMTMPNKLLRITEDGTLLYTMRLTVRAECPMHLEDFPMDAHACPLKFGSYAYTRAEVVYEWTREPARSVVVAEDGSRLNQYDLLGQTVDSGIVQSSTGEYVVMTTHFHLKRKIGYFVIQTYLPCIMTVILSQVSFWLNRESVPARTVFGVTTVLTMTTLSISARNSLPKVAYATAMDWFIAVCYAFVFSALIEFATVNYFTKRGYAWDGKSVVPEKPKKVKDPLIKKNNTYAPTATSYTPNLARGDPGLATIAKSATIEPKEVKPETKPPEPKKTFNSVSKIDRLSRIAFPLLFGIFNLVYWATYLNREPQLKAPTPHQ
T2 sequence (P47870 25-512 partner limits assumed): T1 sequence (P47870 25-512 partner limits assumed)
T2 sequence (P18507 40-467 limits assumed): T1 sequence (P18507 40-467 limits assumed)
Put plainly: GABA-A receptor modulation, voltage-sensitive dye fluorescence in transfected eukaryotic cell line (alpha1). Conditions: compounds at 3 μM, sub-maximal concentration of GABA (EC20); for activation at 3 µM: read-out: alpha1 % mod (percentage of increase of the fluorescent signal compared to signal without the agent). It is filed as cell-based.
From the text: as §1, §2

As to `COc1ccc(-n2nc3c(cnc4ccccc43)c2OCCN2CCOCC2)cc1` [Example 18, 2-(4-methoxyphenyl)-3-(2-morpholin-4-ylethoxy)-2H-pyrazolo[4,3-c]quinoline], the activation at 3 µM in assay [1] is 196%; in assay [2] it was 67%.
As for `N#Cc1ccc2ncc3c(OCc4ccc(Cl)cc4)n(-c4ccccc4)nc3c2c1` [Example 32, 3-[(4-chlorobenzyl)oxy]-2-phenyl-2H-pyrazolo[4,3-c]quinoline-8-carbonitrile], the activation at 3 µM turned out to be 88% in assay [1] and 34% in assay [2].
As for `Fc1ccc(-n2nc3c(cnc4ccccc43)c2OCc2ccccc2F)cc1` [Example 28, 3-[(2-fluorobenzyl)oxy]-2-(4-fluorophenyl)-2H-pyrazolo[4,3-c]quinoline], the activation at 3 µM in assay [1] came out at 146%; in assay [2] it was 34%.
On the same counts, the results for `Clc1ccc(-n2nc3c(cnc4ccccc43)c2OCC2CCCC2)cc1` [Example 91, 2-(4-Chloro-phenyl)-3-cyclopentylmethoxy-2H-pyrazolo[4,3-c]quinoline] are 84% and 55%.
With `CCCCOc1c2cnc3ccccc3c2nn1-c1ccccc1` [Example 4, 3-butoxy-2-phenyl-2H-pyrazolo[4,3-c]quinoline], the activation at 3 µM is 126% in assay [1] and 137% in assay [2].
`COc1ccc(-n2nc3c(cnc4ccccc43)c2OCc2ccc(C(F)(F)F)cc2)cc1` [Example 1, 2-(4-Methoxy-phenyl)-3-(4-trifluoromethyl-benzyloxy)-2H-pyrazolo[4,3-c]quinoline]: the activation at 3 µM was 36% in assay [1] and 5% in assay [2].
For `Fc1ccc(-n2nc3c(cnc4ccccc43)c2OCc2ccccc2Cl)cc1` [Example 63, 3-[(2-chlorobenzyl)oxy]-2-(4-fluorophenyl)-2H-pyrazolo[4,3-c]quinoline], the activation at 3 µM in assay [1] is 60%; in assay [2], 9%.
As to `COc1ccc(-n2nc3c(cnc4ccccc43)c2OCCc2ccccc2Cl)cc1` [Example 15, 3-[2-(2-chlorophenyl)ethoxy]-2-(4-methoxyphenyl)-2H-pyrazolo[4,3-c]quinoline], the activation at 3 µM came to 197% in assay [1] and 23% in assay [2].
With `COc1ccc(-n2nc3c(cnc4ccccc43)c2OCc2ccc(Cl)nc2)cc1` [Example 62, 3-[(6-chloropyridin-3-yl)methoxy]-2-(4-methoxypheny1)-2H-pyrazolo[4,3-c]quinoline], the “alpha2 % mod (percentage of increase of the fluorescent signal compared to signal without the agent)” value in assay [1] turned out to be 141 % mod. Further, the “alpha1 % mod (percentage of increase of the fluorescent signal compared to signal without the agent)” value in assay [2] is reported as 55 % mod.
On to `Clc1ccc(-n2nc3c(cnc4ccc(-n5ccnc5)cc43)c2OCC2CC2)cc1` [Example 96, 2-(4-Chloro-phenyl)-3-cyclopropylmethoxy-8-imidazol-1-yl-2H-pyrazolo[4,3-c]quinoline], for which the values for the activation at 3 µM in assay [1] and in assay [2] were 162% and 119%, respectively.
For `COc1ccc(-n2nc3c(cnc4c(F)c(F)c(F)cc43)c2SCc2ccccc2)cc1` [Example 70, 3-(benzylsulfanyl)-6,7,8-trifluoro-2-(4-methoxyphenyl)-2H-pyrazolo[4,3-c]quinoline], in that order: 349% and 188%.
Regarding `CC(C)(C)n1nc2c(cnc3ccccc32)c1OCc1ccccc1Br` [Example 81, 3-[(2-bromobenzyl)oxy]-2-tert-butyl-2H-pyrazolo[4,3-c]quinoline], the activation at 3 µM stood at 205% in assay [1] and 109% in assay [2].
For `Fc1cccc2c1ncc1c(OCc3ccc(Cl)cc3)n(-c3ccccc3)nc12` [Example 33, 3-[(4-chlorobenzyl)oxy]-6-fluoro-2-phenyl-2H-pyrazolo[4,3-c]quinoline], the figures for the activation at 3 µM in assay [1] and in assay [2] were 73% and 39%, respectively.
Take `COc1ccc(-n2nc3c(cnc4ccccc43)c2OCc2ccc(Cl)cc2)cc1` [Example 89, 3-(4-Chloro-benzyloxy)-2-(4-methoxy-phenyl)-2H-pyrazolo[4,3-c]quinoline]: the activation at 3 µM stood at 69% in assay [1] and 23% in assay [2].
On the same counts, the results for `Fc1ccccc1COc1c2cnc3ccccc3c2nn1-c1ccccc1` [Example 27, 3-[(2-fluorobenzyl)oxy]-2-phenyl-2H-pyrazolo[4,3-c]quinoline] are 165% and 62%.
For `Clc1ccc(-n2nc3c(cnc4ccccc43)c2OCC2CCO2)cc1` (stereo not shown) [Example 98, 2-(4-Chloro-phenyl)-3-(oxetan-2-ylmethoxy)-2H-pyrazolo[4,3-c]quinoline], in that order: 97% and 53%.
As for `CN1CCN(CCOc2c3cnc4ccccc4c3nn2-c2ccc(Cl)cc2)CC1` [Example 99], the “alpha2 % mod (percentage of increase of the fluorescent signal compared to signal without the agent)” value in assay [1] worked out at 121 % mod. In addition, the “alpha1 % mod (percentage of increase of the fluorescent signal compared to signal without the agent)” value in assay [2] came to 58 % mod.
